Test results taken from patent US20090105278A1, “Selective inhibitors of human corticosteroid syntheses” (Universitat Des Saarlandes, priority 2004, published 2009).
Counter-ions that a name gives are not always drawn. Like-named read-outs stand apart in the source and are kept apart here.

Key:
human placental CYP19 = target: T1, human placental CYP19 (Homo sapiens, UniProt P11511); assay: IC50 of CYP19 (human placental microsomes); type: biochemical
T1 construct: The enzyme was obtained from the microsome fraction of fresh human placenta; from tissue; host or cells: human placenta, microsomal fraction
T1 sequence (P11511 1-503): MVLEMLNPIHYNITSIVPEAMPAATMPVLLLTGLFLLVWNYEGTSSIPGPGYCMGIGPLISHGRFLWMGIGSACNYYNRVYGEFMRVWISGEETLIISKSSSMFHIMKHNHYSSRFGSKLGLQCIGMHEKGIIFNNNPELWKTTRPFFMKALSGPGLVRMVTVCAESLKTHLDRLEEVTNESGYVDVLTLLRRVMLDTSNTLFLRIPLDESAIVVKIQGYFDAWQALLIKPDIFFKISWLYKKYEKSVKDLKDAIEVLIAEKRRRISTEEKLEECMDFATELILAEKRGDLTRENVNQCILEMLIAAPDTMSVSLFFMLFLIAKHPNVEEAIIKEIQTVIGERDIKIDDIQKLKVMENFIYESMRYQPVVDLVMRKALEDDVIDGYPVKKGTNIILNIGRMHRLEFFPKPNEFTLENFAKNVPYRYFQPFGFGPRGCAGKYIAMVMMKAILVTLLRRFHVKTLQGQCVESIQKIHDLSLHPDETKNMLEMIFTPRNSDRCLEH
Experimental: The isolated microsomes were suspended in a minimum volume of phosphate buffer (0.05 M; pH 7.4; […]). In addition, DTT (10 mM) and EDTA (1 mM) were added to protect the enzyme from degradation reactions.
[…] […] The compounds to be tested were dissolved in DMSO and diluted with buffer to the desired concentration. The final DMSO concentration of the control and inhibitor incubations was about 20%. Each vessel was preincubated in a water bath at 30° C. for 5 min. The reaction was started by adding the microsomal protein (0.1 mg). The total volume of each mixture was 200 μl. After 14 min, the reaction was quenched by adding 200 μl of ice cold 1 mM HgCl2 solution. Two hundred microliters of a 2% aqueous suspension of dextran-coated charcoal, DCC) was added for absorbing the steroids, and the vessels were shaken for 20 min. Thereafter, the charcoal was centrifuged off at 1500 g for 5 min. The radioactive water present in the supernatant (^3H2O) was assayed by scintillation measurement using an LKB-Wallac beta counter. The calculation of the IC50 values was effected by a semilogarithmic plot of the percent inhibition against the inhibitor concentration.

human CYP11B2 = target: T2, human CYP11B2 (Homo sapiens, UniProt P19099); assay: V79 MZh 11B2 cells inhibition test; type: cell-based; design: expressed in transfected cells; host or cells: V79 MZh11B2 (Chinese hamster lung fibroblasts); conditions: for IC50: hamster fibroblasts which express human CYP11B2, deoxycorticosterone substrate 100 nM, read-out: IC50 V79 11B2 hCYP11B2
T2 sequence (P19099 25-503): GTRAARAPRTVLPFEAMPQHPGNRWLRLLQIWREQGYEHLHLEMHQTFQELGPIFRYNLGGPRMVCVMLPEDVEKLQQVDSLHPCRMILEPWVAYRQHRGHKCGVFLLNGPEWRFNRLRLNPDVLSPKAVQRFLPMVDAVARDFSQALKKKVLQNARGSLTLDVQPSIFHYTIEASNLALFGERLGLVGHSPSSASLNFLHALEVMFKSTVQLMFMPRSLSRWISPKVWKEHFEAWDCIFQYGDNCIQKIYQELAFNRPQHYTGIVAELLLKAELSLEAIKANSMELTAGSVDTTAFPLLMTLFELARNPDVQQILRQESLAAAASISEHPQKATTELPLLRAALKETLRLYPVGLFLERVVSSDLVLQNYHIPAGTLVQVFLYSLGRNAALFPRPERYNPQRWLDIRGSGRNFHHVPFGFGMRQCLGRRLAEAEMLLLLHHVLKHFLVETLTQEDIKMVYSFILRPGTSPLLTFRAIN
Experimental: Both cell lines were cultured in DMEM^+ containing […] and the antibiotics penicillin and streptomycin (10%) for protection from bacterial contamination. The cells were passaged every 2-3 days after treatment with trypsin/EDTA because the doubling rate was 1-2 days depending on the number of cells. […] When there was further need, freshly thawed cells were employed.
Thereafter, the plate was stored at 37° C. and […] in a CO2 incubator. The V79 MZh 11B1 cells were incubated for 120 min, and the V79 MZh 11B2 cells were incubated for 40 min. Controls without inhibitor were treated in the same way. The enzyme reactions were quenched by extracting the supernatant with 500 μl of EtOAc. The samples were centrifuged (10,000 g, 2 min), the solvent was removed and evaporated.
For V79 MZh11B2, the conversion rate was obtained in accordance with equation 3: […]
It was calculated by determining the percent inhibition for at least 3 different inhibitor concentrations, which must all be in the linear range of the sigmoidal IC50 curve (log C/% inhibition).
The calculation was effected by linear regression. The values determined were used only if they formed a straight line with a reliability of […].
The plate was developed twice with the mobile solvent chloroform:methanol:water (300:20:1). Unlabeled 11-deoxycorticosterone and corticosterone were applied as a reference for the CYP11B1 reaction. For the CYP11B2 reaction, 11-deoxycorticosterone, corticosterone, 18-hydroxycorticosterone and aldosterone were used as references. The detection of the unlabeled references was effected at 260 nm. Subsequently, imaging plates (BAS MS2340, for ^14C samples, Raytest, Straubenhardt, Germany) were exposed to the HPTLC plates for 48 h. The imaging plates were scanned with the phosphoimager system Fuji FLA 3000 (Raytest, Straubenhardt, Germany), and the steroids were quantified.

[1] = human placental CYP19, testosterone substrate 2.5 μM

Row | Compound | IC50 (human placental CYP19; [1]) [nM] | IC50 (human CYP11B2) [nM] | Selectivity factor IC50 (CYP11B1)/IC50 (CYP11B2) (human CYP11B2; V79 cells expressing human CYP11B1 or CYP11B2) | IC50 (human placental CYP19) [nM]
1 | 5-[(E)-(6-Chloro-3,4-dihydronaphth-1(2H)-ylidene)methyl]-1H-imidazolium chloride [Compound 46a] | 120 | 47.3 |  | 
2 | 5-[(Z)-3,4-Dihydronaphth-1(2H)-ylidenemethyl]-1H-imidazolium oxalate [Compound 41b] | 190 |  |  | 
3 | 5-[(Z)-(5-Bromo-2,3-dihydro-1H-indene-1-ylidene)methyl]-1H-imidazolium oxalate [Compound 49b] |  | 10.3 |  | 
4 | 5-[(Z)-(5-Chloro-2,3-dihydro-1H-indene-1-ylidene)methyl]-1H-imidazolium oxalate [Compound 48b] | 39 |  | five times | 
5 | C(=C1/CCc2ccccc21)/c1cccnc1 [Compound 1a, 3-[(E)-2,3-Dihydro-1H-indane-1-ylidenemethyl]pyridine Hydrochloride] | 2040 | 10.6 |  | 
6 | C(=C1\CCc2ccccc21)/c1cccnc1.Cl [Compound 1b, 3-[(Z)-2,3-Dihydro-1H-indane-1-ylidenemethyl]pyridine Hydrochloride] |  | 92 |  | 3550
7 | C(=C1\CCc2ccccc21)/c1ccncc1 [Compound 2b, 4-[(Z)-2,3-Dihydro-1H-indane-1-ylidenemethyl]pyridine oxalate] | 12700 | 931 |  | 
8 | C(=C1/CCCc2ccccc21)/c1cccnc1.Cl [Compound 3a, 3-[(E)-3,4-Dihydronaphthalene-1(2H)-ylidenemethyl]pyridine Hydrochloride] | 6580 | 21.6 |  | 
9 | C(=C1\CCCc2ccccc21)/c1cccnc1.Cl [Compound 3b, 3-[(Z)-3,4-Dihydronaphthalene-1(2H)-ylidenemethyl]pyridine Hydrochloride] | 3790 | 141 |  | 
10 | Fc1ccc2c(c1)CC/C2=C\c1cccnc1 [Compound 5a, 3-[(E)-(5-Fluoro-2,3-dihydro-1H-indane-1-ylidene)methyl]pyridine Hydrochloride] | 2540 | 6.8 |  | 
11 | Fc1ccc2c(c1)CC/C2=C/c1cccnc1 [Compound 5b, 3-[(Z)-(5-Fluoro-2,3-dihydro-1H-indane-1-ylidene)methyl]pyridine Hydrochloride] | 2490 | 10.8 |  | 
12 | Fc1ccc2c(c1)CC/C2=C\c1ccncc1 [Compound 6a, 4-[(E)-(5-Fluoro-2,3-dihydro-1H-indane-1-ylidene)methyl]pyridine Hydrochloride] | 1550 | 1100 |  | 
13 | Fc1ccc2c(c1)CC/C2=C/c1ccncc1 [Compound 6b, 4-[(Z)-(5-Fluoro-2,3-dihydro-1H-indane-1-ylidene)methyl]pyridine Hydrochloride] | 800 | 34 |  | 
14 | Clc1ccc2c(c1)CC/C2=C\c1cccnc1 [Compound 7a, 3-[(E)-(5-Chloro-2.3-dihydro-1H-indane-1-ylidene)methyl]pyridine Hydrochloride] | 4260 | 26.2 |  | 
15 | Clc1ccc2c(c1)CC/C2=C/c1cccnc1 [Compound 7b, 3-[(Z)-(5-Chloro-2,3-dihydro-1H-indane-1-ylidene)methyl]pyridine Hydrochloride] | 4050 | 72.7 |  | 
16 | Clc1ccc2c(c1)CC/C2=C\c1ccncc1 [Compound 8a, 4-[(E)-(5-Chloro-2,3-dihydro-1H-indane-1-ylidene)methyl]pyridine Hydrochloride] | 5430 | 1520 |  | 
17 | Brc1ccc2c(c1)CC/C2=C\c1cccnc1 [Compound 9a, 3-[(E)-(5-Bromo-2,3-dihydro-1H-indane-1-ylidene)methyl]pyridine Hydrochloride] | 7830 | 37.4 |  | 
18 | Brc1ccc2c(c1)CC/C2=C/c1cccnc1 [Compound 9b, 3-[(Z)-(5-Bromo-2,3-dihydro-1H-indane-1-ylidene)methyl]pyridine Hydrochloride] | 7370 | 171 |  | 
19 | Brc1ccc2c(c1)CC/C2=C\c1ccncc1 [Compound 10a, 4-[(E)-(5-Bromo-2,3-dihydro-1H-indane-1-ylidene)methyl]pyridine Hydrochloride] |  | 2640 |  | 
20 | COc1ccc2c(c1)CC/C2=C\c1cccnc1 [Compound 11a, 3-[(E)-(5-Methoxy-2,3-dihydro-1H-indane-1-ylidene)methyl]pyridine Hydrochloride] | 4310 | 34.2 |  | 
21 | COc1ccc2c(c1)CC/C2=C/c1cccnc1 [Compound 11b, 3-[(Z)-(5-Methoxy-2,3-dihydro-1H-indane-1-ylidene)methyl]pyridine Hydrochloride] | 5570 | 26.4 |  | 
22 | COc1ccc2c(c1)CCC/C2=C\c1cccnc1 [Compound 13a, 3-[(E)-(6-Methoxy-3,4-dihydronaphthalene-1(2H)-ylidene)methyl]pyridine Hydrochloride] | 1130 | 56.6 |  | 
23 | COc1ccc2c(c1)CCC/C2=C/c1cccnc1.Cl [Compound 13b, 3-[(Z)-(6-Methoxy-3,4-dihydronaphthalene-1(2H)-ylidene)methyl]pyridine Hydrochloride] | 4000 | 878 |  | 
24 | CCOc1ccc2c(c1)CC/C2=C\c1cccnc1 [Compound 19a, 3-[(E)-(5-Ethoxy-2,3-dihydro-1H-indane-1-ylidene)methyl]pyridine Hydrochloride] | 7080 | 79.4 |  | 
25 | C(=C1/CCCc2ccccc21)/c1cnc[nH]1 [Compound 41a, 5-[(E)-3,4-Dihydronaphth-1(2H)-ylidenemethyl]-1H-imidazole] | 226 |  |  | 
26 | C(=C1/CCc2ccccc21)/c1cnc[nH]1 [Compound 42a, 5-[(E)-2,3-Dihydro-1H-indane-1-ylidenemethyl]-1H-imidazole] |  | 41 |  | 
27 | C(=C1\CCc2ccccc21)/c1cnc[nH]1 [Compound 42b, 5-[(Z)-2,3-Dihydro-1H-ind-1-ylidenemethyl]-1H-imidazolium oxalate] |  | 11 |  | 
28 | Cl.Clc1ccc2c(c1)CC/C2=C\c1cnc[nH]1 [Compound 48a, 5-[(E)-(5-Chloro-2,3-dihydro-1H-indene-1-ylidene)methyl]-1H-imidazolium chloride] | 330 |  |  | 
29 | Brc1ccc2c(c1)CC/C2=C\c1cnc[nH]1.Cl [Compound 49a, 5-[(E)-(5-Bromo-2,3-dihydro-1H-indene-1-ylidene)methyl]-1H-imidazolium chloride] |  | 92.8 |  | 
